Data as given in ChEMBL document CHEMBL5528008, “Design and synthesis of the first PARP-1 and proteasome dual inhibitors to treat breast cancer” (Eur J Med Chem, 2024).
One block for each compound: values may come before it. The source made the active and inactive calls. The rule behind the calls is not given here.

How the values were obtained:
20S proteasome = test: Inhibition of 20S proteasome (unknown origin) using […] as substrate; format: protein-complex assay, Homo sapiens
[1] = biological target: T1, Poly [ADP-ribose] polymerase 1 (Homo sapiens, UniProt P09874); test: Inhibition of PARP-1 (unknown origin) using Femto-ECL as substrate preincubated for 2.7 hrs followed by substrate addition by chemiluminescence assay
T1 sequence (P09874 whole entry): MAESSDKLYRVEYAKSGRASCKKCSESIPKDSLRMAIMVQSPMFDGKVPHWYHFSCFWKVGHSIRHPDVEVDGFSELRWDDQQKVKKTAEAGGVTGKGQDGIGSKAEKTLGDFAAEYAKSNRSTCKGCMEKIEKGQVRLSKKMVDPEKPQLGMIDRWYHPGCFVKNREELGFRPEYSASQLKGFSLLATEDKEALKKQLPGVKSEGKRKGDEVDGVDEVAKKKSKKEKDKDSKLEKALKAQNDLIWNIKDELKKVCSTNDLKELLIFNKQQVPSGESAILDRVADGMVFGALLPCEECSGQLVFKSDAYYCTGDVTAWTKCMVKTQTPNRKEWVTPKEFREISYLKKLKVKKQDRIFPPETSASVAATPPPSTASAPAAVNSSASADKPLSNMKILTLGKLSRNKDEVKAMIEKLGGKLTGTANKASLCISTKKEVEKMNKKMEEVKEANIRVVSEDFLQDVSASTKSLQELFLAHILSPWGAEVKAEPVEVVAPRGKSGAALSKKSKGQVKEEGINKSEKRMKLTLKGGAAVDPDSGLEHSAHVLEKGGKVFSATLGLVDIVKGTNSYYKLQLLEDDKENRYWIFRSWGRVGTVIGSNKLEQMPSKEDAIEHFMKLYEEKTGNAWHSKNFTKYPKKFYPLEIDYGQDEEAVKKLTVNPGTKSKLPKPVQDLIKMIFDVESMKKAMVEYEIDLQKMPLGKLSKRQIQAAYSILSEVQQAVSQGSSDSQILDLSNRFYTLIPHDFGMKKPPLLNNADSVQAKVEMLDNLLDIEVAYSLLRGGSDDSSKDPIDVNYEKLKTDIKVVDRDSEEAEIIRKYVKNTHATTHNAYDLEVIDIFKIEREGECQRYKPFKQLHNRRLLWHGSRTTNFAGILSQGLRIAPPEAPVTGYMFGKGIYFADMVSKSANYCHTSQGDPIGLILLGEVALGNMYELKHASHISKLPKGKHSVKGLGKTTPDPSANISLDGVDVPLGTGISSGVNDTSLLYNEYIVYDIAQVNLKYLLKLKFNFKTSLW

MDA-MB-231 = test: Cytotoxicity against human MDA-MB-231 cells assessed as inhibition of cell growth incubated for 72 hrs by MTT assay; format: functional, cell-based; conditions: MDA-MB-231, 72 h
MCF7 = test: Cytotoxicity against human MCF7 cells assessed as inhibition of cell growth incubated for 72 hrs by MTT assay; format: functional, cell-based; conditions: MCF7, 72 h
BT-549 [2] = test: Cytotoxicity against human BT-549 cells assessed as inhibition of cell growth incubated for 72 hrs by MTT assay; format: functional, cell-based; conditions: BT-549, 72 h
[3] = biological target: T1, Poly [ADP-ribose] polymerase 1; test: Inhibition of PARP-1 in human BT-549 cells assessed as downregulation of BRCA1 mRNA expression incubated for 48 hrs by RT-qPCR analysis; format: cell-based
BT-549 [4] = test: Induction of apoptosis in human BT-549 cells assessed as increase in early apoptotic cells incubated for 48 hrs by Annexin V-FITC/PI staining based flow cytometric analysis; format: functional, cell-based
BT-549 [5] = test: Induction of DNA damage in human BT-549 cells assessed as decrease in polyubiquitination in nucleus at 0.125 uM incubated for 48 hrs by fluorescence confocal microscopic analysis; format: functional, cell-based
BT-549 [6] = test: Induction of DNA damage in human BT-549 cells assessed as increase in polyubiquitination at 0.125 uM incubated for 48 hrs by fluorescence confocal microscopic analysis; format: functional, cell-based
BT-549 [7] = test: Induction in cell cycle arrest in human BT-549 cells assessed as upregulation of p21 expression at 0.5 uM incubated for 48 hrs by Western blotting analysis; format: functional, cell-based
[8] = biological target: T1, Poly [ADP-ribose] polymerase 1; test: Inhibition of PARP-1 in human BT-549 cells assessed as downregulation of FANCD2 mRNA expression incubated for 48 hrs by RT-qPCR analysis; format: cell-based
[9] = biological target: T1, Poly [ADP-ribose] polymerase 1; test: Inhibition of PARP-1 in human BT-549 cells assessed as downregulation of BRCA1 expression at 0.05 uM incubated for 48 hrs by immunoblotting analysis; format: cell-based
[10] = biological target: T1, Poly [ADP-ribose] polymerase 1; test: Inhibition of PARP-1 in human BT-549 cells assessed as downregulation of RAD51 expression at 0.5 uM incubated for 48 hrs by immunoblotting analysis; format: cell-based
BT-549 [11] = test: Induction of apoptosis in human BT-549 cells assessed as upregulation of cleaved caspase-3 expression incubated for 48 hrs by Western blotting analysis; format: functional, cell-based
BT-549 [12] = test: Induction of DNA damage in human BT-549 cells assessed as decrease in ubiquitin localization in nucleus at 0.125 uM incubated for 48 hrs by fluorescence confocal microscopic analysis; format: functional, cell-based
BT-549 [13] = test: Induction of DNA damage in human BT-549 cells assessed as increase in gamma-H2AX localization in nucleus at 0.125 uM incubated for 48 hrs by fluorescence confocal microscopic analysis; format: functional, cell-based
BT-549 [14] = test: Induction of apoptosis in human BT-549 cells assessed as increase in late apoptotic cells incubated for 48 hrs by Annexin V-FITC/PI staining based flow cytometric analysis; format: functional, cell-based
BT-549 [15] = test: Inhibition of colony formation in human BT-549 cells assessed as reduction in colony number incubated for 14 days by crystal violet staining based analysis; format: functional, cell-based; conditions: time 14.0 day
BT-549 [16] = test: Induction in cell cycle arrest in human BT-549 cells assessed as downregulation of Cyclin A2 expression at 0.5 uM incubated for 48 hrs by Western blotting analysis; format: functional, cell-based
[17] = biological target: T1, Poly [ADP-ribose] polymerase 1; test: Inhibition of PARP-1 in human BT-549 cells assessed as downregulation of BRCA1 expression at 0.5 uM incubated for 48 hrs by immunoblotting analysis; format: cell-based
BT-549 [18] = test: Induction in cell cycle arrest in human BT-549 cells assessed as downregulation of Cyclin A2 expression at 0.05 uM incubated for 48 hrs by Western blotting analysis; format: functional, cell-based
[19] = biological target: T1, Poly [ADP-ribose] polymerase 1; test: Inhibition of PARP-1 in human BT-549 cells assessed as downregulation of BRCA2 mRNA expression incubated for 48 hrs by RT-qPCR analysis; format: cell-based
[20] = biological target: T1, Poly [ADP-ribose] polymerase 1; test: Inhibition of PARP-1 in human BT-549 cells assessed as downregulation of P-ATM expression at 0.05 uM incubated for 48 hrs by immunoblotting analysis; format: cell-based
[21] = biological target: T1, Poly [ADP-ribose] polymerase 1; test: Inhibition of PARP-1 in human BT-549 cells assessed as downregulation of RAD51 expression at 0.05 uM incubated for 48 hrs by immunoblotting analysis; format: cell-based
[22] = biological target: T1, Poly [ADP-ribose] polymerase 1; test: Inhibition of PARP-1 in human BT-549 cells assessed as downregulation of P-ATM expression at 0.5 uM incubated for 48 hrs by immunoblotting analysis; format: cell-based
BT-549 [23] = test: Inhibition of colony formation in human BT-549 cells assessed as reduction in colony size incubated for 14 days by crystal violet staining based analysis; format: functional, cell-based; conditions: time 14.0 day
BT-549 [24] = test: Induction of apoptosis in human BT-549 cells assessed as upregulation of cleaved PARP expression incubated for 48 hrs by Western blotting analysis; format: functional, cell-based
BT-549 [25] = test: Induction in cell cycle arrest in human BT-549 cells assessed as upregulation of p21 expression at 0.05 uM incubated for 48 hrs by Western blotting analysis; format: functional, cell-based
BT-549 [26] = test: Induction of DNA damage in human BT-549 cells assessed as upregulation of gamma-H2AX level at 0.05 uM incubated for 48 hrs by immunoblotting analysis; format: functional, cell-based
[27] = biological target: T1, Poly [ADP-ribose] polymerase 1; test: Inhibition of PARP-1 in human BT-549 cells assessed as downregulation of RAD51 mRNA expression incubated for 48 hrs by RT-qPCR analysis; format: cell-based
BT-549 [28] = test: Induction in cell cycle arrest in human BT-549 cells assessed as downregulation of CDK1 expression at 0.05 uM incubated for 48 hrs by Western blotting analysis; format: functional, cell-based
BT-549 [29] = test: Induction in cell cycle arrest in human BT-549 cells assessed as downregulation of CDK1 expression at 0.5 uM incubated for 48 hrs by Western blotting analysis; format: functional, cell-based
BT-549 [30] = test: Induction of DNA damage in human BT-549 cells assessed as upregulation of gamma-H2AX level at 0.5 uM incubated for 48 hrs by immunoblotting analysis; format: functional, cell-based
BT-549 [31] = test: Induction of DNA damage in human BT-549 cells assessed as decrease in BRCA1 localization in nucleus at 0.125 uM incubated for 48 hrs by fluorescence confocal microscopic analysis; format: functional, cell-based

Compound: Cc1c(Cc2ccc(F)c(C(=O)NCC(=O)N[C@@H](CC(C)C)B3O[C@@H]4C[C@@H]5C[C@@H](C5(C)C)[C@]4(C)O3)c2)n[nH]c(=O)c1C
IC50 [1]: 173 nM | IC50 (20S proteasome): 39.5 nM

Compound: CC(C)C[C@H](NC(=O)[C@H](CCc1ccccc1)NC(=O)c1cc(Cc2n[nH]c(=O)c3ccccc23)ccc1F)B1O[C@@H]2C[C@@H]3C[C@@H](C3(C)C)[C@]2(C)O1
IC50 [1]: 100 nM | IC50 (MDA-MB-231): 29.5 nM | IC50 (MCF7): 14.6 nM | IC50 (BT-549 [2]): 294 nM | IC50 (20S proteasome): 34.5 nM

Compound: CC(C)C[C@H](NC(=O)[C@@H](NC(=O)c1cc(Cc2n[nH]c(=O)c3ccccc23)ccc1F)C(C)(C)C)B1O[C@@H]2C[C@@H]3C[C@@H](C3(C)C)[C@]2(C)O1
IC50 [1]: 171 nM | IC50 (MDA-MB-231): 28.1 nM | IC50 (MCF7): 130 nM | IC50 (BT-549 [2]): 12.3 nM | IC50 (20S proteasome): 65.6 nM

Compound: CC(C)C[C@H](NC(=O)[C@H](Cc1c[nH]c2ccccc12)NC(=O)c1cc(Cc2n[nH]c(=O)c3ccccc23)ccc1F)B1O[C@@H]2C[C@@H]3C[C@@H](C3(C)C)[C@]2(C)O1
IC50 [1]: 28 nM | IC50 (MDA-MB-231): 297 nM | IC50 (MCF7): 45.1 nM | IC50 (BT-549 [2]): 216 nM | IC50 (20S proteasome): 42.6 nM

Compound: COC[C@H](NC(=O)c1cc(Cc2n[nH]c(=O)c(C)c2C)ccc1F)C(=O)N[C@@H](CC(C)C)B1O[C@@H]2C[C@@H]3C[C@@H](C3(C)C)[C@]2(C)O1
IC50 [1]: > 1000 nM

Now from value to compound, other results behind:

IC50 (20S proteasome): > 10000 nM
Compound: CC(C)C[C@H](NC(=O)CNC(=O)c1cc(Cc2n[nH]c(=O)c3ccccc23)ccc1F)C(=O)[C@@]1(C)CO1

IC50 [1]: 247 nM | IC50 (20S proteasome): 21.4 nM
Compound: COC[C@H](NC(=O)c1cc(Cc2n[nH]c(=O)c3ccccc23)ccc1F)C(=O)N[C@@H](CC(C)C)B1O[C@@H]2C[C@@H]3C[C@@H](C3(C)C)[C@]2(C)O1
IC50 (MDA-MB-231): 101 nM | IC50 (MCF7): 40.8 nM | IC50 (BT-549 [2]): 109 nM

IC50 [1]: 102 nM | inhibition [3]: Dose-Dependent Effect | inhibition [8]: Dose-Dependent Effect | inhibition [9]: Active | inhibition [10]: Active | inhibition [17]: Active | inhibition [19]: Dose-Dependent Effect | inhibition [20]: Active | inhibition [21]: Active | inhibition [22]: Active | inhibition [27]: Dose-Dependent Effect | IC50 (20S proteasome): 82.3 nM
Compound: CSCC[C@H](NC(=O)c1cc(Cc2n[nH]c(=O)c3ccccc23)ccc1F)C(=O)N[C@@H](CC(C)C)B1O[C@@H]2C[C@@H]3C[C@@H](C3(C)C)[C@]2(C)O1
Activity (BT-549 [4]): Dose-Dependent Effect | IC50 (MDA-MB-231): 67.6 nM | Activity (BT-549 [5]): Active | Activity (BT-549 [6]): Active | Activity (BT-549 [7]): Active | Activity (BT-549 [11]): Dose-Dependent Effect | Activity (BT-549 [12]): Active | Activity (BT-549 [13]): Active | Activity (BT-549 [14]): Dose-Dependent Effect | inhibition (BT-549 [15]): Dose-Dependent Effect | Activity (BT-549 [16]): Active | Activity (BT-549 [18]): Active | IC50 (MCF7): 60.1 nM | inhibition (BT-549 [23]): Dose-Dependent Effect | Activity (BT-549 [24]): Dose-Dependent Effect | Activity (BT-549 [25]): Active | Activity (BT-549 [26]): Active | Activity (BT-549 [28]): Active | IC50 (BT-549 [2]): 12.4 nM | Activity (BT-549 [29]): Active | Activity (BT-549 [30]): Active | Activity (BT-549 [31]): Active

IC50 [1]: 4.1 nM | IC50 (20S proteasome): 386 nM
Compound: CC(C)C[C@H](NC(=O)CNC(=O)c1cc(Cc2n[nH]c(=O)c3ccccc23)ccc1F)B(O)O

IC50 [1]: 291 nM | IC50 (20S proteasome): 87.8 nM
Compound: CC(C)C[C@H](NC(=O)[C@H](Cc1ccccc1)NC(=O)c1cc(Cc2n[nH]c(=O)c3ccccc23)ccc1F)B(O)O

IC50 [1]: 118 nM | IC50 (20S proteasome): 132 nM
Compound: CC(C)C[C@H](NC(=O)[C@H](C)NC(=O)c1cc(Cc2n[nH]c(=O)c3ccccc23)ccc1F)B1O[C@@H]2C[C@@H]3C[C@@H](C3(C)C)[C@]2(C)O1
IC50 (MDA-MB-231): 37 nM | IC50 (MCF7): 20.8 nM | IC50 (BT-549 [2]): 41 nM
